The source of these data is patent US7972848B2, “Isolation and identification of cross-reactive T cells” (Opexa Therapeutics, Inc., priority 2002, dated 2011).

One assay addresses HLA-DR (DRB1*1501) (Homo sapiens, UniProt P01903+P01911). The conditions noted are these: cited from earlier work.
The test system of the next assay is serum IgG antibodies. As to the kind of experiment: Serum antibody reactivity to the peptides by ELISA. Format: binding, human. The conditions noted are these: serum dilutions 1:50 and 1:100; MS patients compared to control subjects. Here is the method:
We further addressed whether the increased T cell responses to both peptides of HHV-6 (U24)1-13 and MBP93-105 were consistent with potential B cell sensitization to the peptides in MS patients as compared to healthy controls. To this end, serum specimens freshly obtained from the same MS patients and the control subjects were examined for specific antibody reactivity to the peptides by ELISA.
Antibody titers were determined in serum specimens by ELISA. Briefly, microtiter plates were coated overnight at 4° C. with the peptides at 5 μg/ml in a carbonate buffer (100 mM, pH 9.5). An irrelevant peptide and MBP41-59 were used as reference peptides. Non-specific binding sites were saturated with FBS-PBS for 1 hour and washed subsequently with PBS-T. Serum samples were prepared in serial dilutions (1:50, 1:100, 1:500) with FBS-PBS and 100 μl of each sample were added in duplicate wells. The rest of the procedure is the same as that described above.

Assay [1] deals with peripheral blood mononuclear cells (PBMC). As to the kind of experiment: Estimated precursor frequency of peptide-reactive and cross-reactive T cells in PBMC (proliferation assay). Format: cell-based, human. As to conditions: for estimated frequency of T cells specific for the antigen: in PBMC, primed and tested with the same antigen; for estimated frequency of cross-reactive T cells (reactive to both peptides) primed by the peptide: primed by the labelled peptide. The procedure:
The T cell responses to two synthetic peptides containing an identical core sequence of seven amino acids was measured to estimate the precursor frequency of cross-reactive T cells in PBMC. Two 13-mer peptides corresponding to residues 1-13 of HHV-6 U24 and residues 93-105 of MBP were synthesized and purified to greater than 95%. The MBP93-105 and HHV-6 (U24)1-13 peptides contain the identical core sequence of 7 amino acids with distinct flanking residues (MBP-IVTPRTPPPSQGK and HHV6-MDRPRTPPPSYSE) (SEQ ID NO: 8 and SEQ ID NO: 9, respectively).
Peripheral blood mononuclear cells (PBMC) were seeded at 3×10^5 cells per well in 96-well U-bottomed plates in the presence of the peptides of MBP93-105 or HHV-6 (U24)1-13 at 30 μg/ml or the whole MBP (40 μg/ml), respectively. A total of 24 wells were plated for each antigen. Seven days later, the cultures were tested for the reactivity to both peptides using AIM-V serum free medium (Gibco BRL, Grand Island, N.Y.) alone as a control. To this end, each culture was split into three identical aliquots and tested for the reactivity to MBP and the indicated peptides in duplicate. Two aliquots were tested for reactivity to peptide MBP93-105 and peptide HHV-6 (U24)1-13 at the same concentration of 30 μg/ml, respectively, in the presence of irradiated (6,000 rads) autologous PBMC (10^5 cells per well) as a source of antigen-presenting cells (APC). One aliquot served as a control (medium alone in the presence of APC). The reactivity of the end cultures was measured after 72 hours by proliferation assays as described in Zhang et al., “MHC restricted clonotypic depletion of human myelin basic protein by T cell vaccination,” Science 261:1451-1454 (1993), which is hereby incorporated by reference in its entirety.
According to the reactivity of the resulting T cells, they were categorized as mono-specific T cells or cross-reactive T cells. Mono-specific MBP- or HHV-6 reactive T cells were reactive only to the peptide originally used to prime the cells. Mono-specific T cells were defined as reactive to the given peptide when CPM was greater than 1,000 and exceeded CPM of the control (medium alone) and of the other peptide by at least three-fold. Cross-reactive T cells were reactive to both peptides after being originally primed with only one of the peptides. Cross-reactive T cells were defined as CPM of both peptides exceeded 1,000 and the control CPM by at least three-fold. The frequency of peptide-reactive T cells was then estimated by dividing the number of positive wells by the total number of PBMC seeded in the initial culture.

Assay [2] has as its system MBP83-99 specific and MBP93-105 specific T cell clones. The assay can be described thus: Cross-reactivity of T cell responses of MBP83-99 and MBP93-105 specific T cell clones. The class given is cell-based, human. The conditions noted are these: four MBP83-99 specific and six MBP93-105 specific T cell clones; data not shown. From the text:
Although the T cell recognition of MBP in MS patients is relatively heterogeneous, some regions of MBP have immunodominant properties, such as the 84-102/83-99 region and the 151-170 region of MBP. The immunodominant properties of these regions may be associated with their binding affinity to HLA-DR (DRB 1*1501) preferentially expressed in the MS population. […] Although the 93-105 region of MBP homologues and the 1-13 region of HHV-6 (U24) have an overlap of 4 amino acids (PRTP) (SEQ ID NO:11) with the 83-99 immunodominant region of MBP, the PRTP sequence alone is not sufficient to form an individual T cell epitope and is unlikely to represent the immunodominant T cell epitopes. […] However, the possibility exists that the increased T cell sensitization to MBP in MS patients may be initially triggered by the HHV-6 antigen that shares the sequence homology with MBP93-105 and later spreads to other epitopes of MBP by the mechanism known as epitope spreading.

As for “84-103: peptide corresponding to the 84-103 region of MBP (DPGSRPHLIRLFSRDAPGRE; UniProt P02686 84-103, looked up, fragment)”, the “binding affinity to DRB1*1501 / HLA-DR” value in the assay with HLA-DR (DRB1*1501) was “highest binding affinity”.

As for “MDRPRTPPPSYSE (listed as Homo sapiens) [HHV-6 (U24)1-13]”, the “serum antibody titers for the peptide” value in the assay on serum IgG antibodies is “elevated”. In assay [1] (MS cohort), the “cross-reactive T cells primed by the peptide as share of all T cells recognizing peptide MBP93-105” value was “greater than 50%”. Besides, the “estimated frequency of T cells specific for the antigen” value (from here on “estimated frequency … for the antigen”) in assay [1] (MS patients) is on record as 0.7×10^−6; in assay [1] (healthy controls) it was 0.32×10^−6. In addition, the “frequency of T cells initially primed with the whole MBP and reacted to peptide HHV-6 (U24)1-13” value in assay [1] (MS patients, p=0.08 vs control) is listed as 0.33×10^−6; in assay [1] (control group), 0.05×10^−6. Further, the “estimated frequency of cross-reactive T cells (reactive to both peptides) primed by the peptide” value (shortened to “estimated frequency … by the peptide”) in assay [1] (healthy controls) is 0.17×10^−6.

On to “144-163: peptide corresponding to the 144-163 region of MBP (HGSKYLATASTMDHARHGFL; UniProt P02686 144-163, looked up, fragment)”, for which the “binding affinity to DRB1*1501 / HLA-DR” value in the assay with HLA-DR (DRB1*1501) is given as “highest binding affinity”.

In the case of myelin basic protein [whole MBP], the “estimated frequency … for the antigen” value in assay [1] (MS patients) and in assay [1] (healthy controls) was 0.6×10^−6 in each case.

As to “IVTPRTPPPSQGK (listed as Homo sapiens) [MBP93-105]”, the “serum antibody titers for the peptide” value with serum IgG antibodies was “elevated”. In addition, in assay [1] (MS patients), the “estimated frequency … for the antigen” value is listed as 0.53×10^−6 and the “estimated frequency … by the peptide” value is 0.36×10^−6. Besides, in assay [1] (healthy controls), the “estimated frequency … for the antigen” value is recorded as 0.19×10^−6 and the “estimated frequency … by the peptide” value was 0.09×10^−6. In addition, in assay [2], the “cross-reactivity between T cell responses to MBP83-99 peptide and MBP93-105 peptide” value is on record as “no cross-reactivity”. The “binding affinity to DRB1*1501 / HLA-DR” value with HLA-DR (DRB1*1501) was “does not have high binding affinity”.
